Measured values: ChEMBL document CHEMBL1201862, “PubChem BioAssay data set” (2004)
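These data come from cells grown in 96-well plates and exposed to compound for 48 hours at five concentrations. GI50 is the concentration that inhibits growth by half.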 Calls of active or inactive are those of the source. Rule as the data show it: active = GI50 up to about 1.1 µM and inactive = higher.

Legend:
Experiment in all cases: NCI anticancer screen, dose series, 48 h
PC-3 = tested on: PC-3
SK-MEL-5 = tested on: SK-MEL-5
BT-549 = tested on: BT-549
OVCAR-5 = tested on: OVCAR-5
T47D = tested on: T47D
MDA-N = tested on: MDA-N
NCI-H522 = tested on: NCI-H522
COLO 205 = tested on: COLO 205
SR = tested on: SR
EKVX = tested on: EKVX
NCI/ADR-RES = tested on: NCI/ADR-RES
RPMI-8226 = tested on: RPMI-8226
SW-620 = tested on: SW-620
NCI-H23 = tested on: NCI-H23
A549 = tested on: A549
HL-60 = tested on: HL-60
MOLT-4 = tested on: MOLT-4
LOX IMVI = tested on: LOX IMVI
UACC-257 = tested on: UACC-257
CAKI-1 = tested on: CAKI-1

Measured: GI50

CCN(CCN(CC)C(=O)NC)C(=O)NC
inactive: PC-3 > 100 µM | SK-MEL-5 > 100 µM | BT-549 > 100 µM | OVCAR-5 > 100 µM | T47D > 100 µM | MDA-N > 100 µM | NCI-H522 > 100 µM | COLO 205 > 100 µM | SR > 100 µM | EKVX > 100 µM | NCI/ADR-RES > 100 µM | RPMI-8226 > 100 µM | SW-620 > 100 µM | NCI-H23 > 100 µM | A549 > 100 µM | HL-60 > 100 µM | MOLT-4 > 100 µM | LOX IMVI > 100 µM | UACC-257 > 100 µM

CCCCC1Cc2cc(O)ccc2-c2nc3cc(O)ccc3n21.CCCCC1Cc2cc(O)ccc2-c2nc3ccc(O)cc3n21 (centres undefined)
inactive: PC-3 12.6 µM | SK-MEL-5 13.5 µM | CAKI-1 23.7 µM | BT-549 19.2 µM | OVCAR-5 16.6 µM | T47D 19.9 µM | MDA-N 14.3 µM | NCI-H522 11.1 µM | COLO 205 15.7 µM | SR 12.6 µM | EKVX 17.2 µM | NCI/ADR-RES 18.6 µM | RPMI-8226 12.4 µM | SW-620 16.9 µM | NCI-H23 21.9 µM | A549 16.3 µM | HL-60 19.1 µM | MOLT-4 13.6 µM | LOX IMVI 16.8 µM | UACC-257 15.8 µM

CCOc1cc2c(NCCCN(CCO)CCO)ncnc2c(OCC)c1OCC
inactive: PC-3 > 100 µM | SK-MEL-5 > 100 µM | CAKI-1 > 100 µM | BT-549 > 76.4 µM | OVCAR-5 > 100 µM | T47D > 90.4 µM | MDA-N > 100 µM | NCI-H522 > 100 µM | COLO 205 69.3 µM | SR > 100 µM | EKVX > 100 µM | NCI/ADR-RES > 100 µM | RPMI-8226 > 100 µM | SW-620 > 100 µM | NCI-H23 > 100 µM | A549 > 94.4 µM | HL-60 > 89.1 µM | MOLT-4 > 87.1 µM | LOX IMVI > 100 µM | UACC-257 > 83.2 µM

O=C(O)c1ccc(S(=O)(=O)c2ccccc2[N+](=O)[O-])cc1
inactive: PC-3 > 10 µM | SK-MEL-5 > 10 µM | CAKI-1 > 10 µM | BT-549 > 10 µM | OVCAR-5 > 10 µM | T47D > 10 µM | MDA-N > 10 µM | NCI-H522 > 10 µM | COLO 205 > 10 µM | SR > 10 µM | EKVX > 10 µM | NCI/ADR-RES > 10 µM | RPMI-8226 > 10 µM | SW-620 > 10 µM | NCI-H23 > 10 µM | A549 > 10 µM | HL-60 > 10 µM | MOLT-4 > 10 µM | LOX IMVI > 10 µM | UACC-257 > 10 µM

O=C1N2CCc3c([nH]c4ccccc34)C23CC2CCCCC12S3 (centres undefined)
inactive: PC-3 > 100 µM | SK-MEL-5 63.5 µM | CAKI-1 > 100 µM | BT-549 > 100 µM | OVCAR-5 > 100 µM | T47D > 100 µM | MDA-N > 100 µM | NCI-H522 > 100 µM | COLO 205 > 100 µM | SR 34.5 µM | EKVX > 100 µM | NCI/ADR-RES > 100 µM | RPMI-8226 48.8 µM | SW-620 > 100 µM | NCI-H23 > 100 µM | A549 > 100 µM | HL-60 95.5 µM | MOLT-4 24.7 µM | LOX IMVI > 100 µM | UACC-257 18.5 µM

CC(=N\N)/C(C)=N/N=C(C)/C(C)=N/N
inactive: PC-3 > 100 µM | SK-MEL-5 > 100 µM | CAKI-1 > 100 µM | BT-549 > 100 µM | OVCAR-5 > 100 µM | T47D > 100 µM | MDA-N > 100 µM | NCI-H522 > 100 µM | COLO 205 > 100 µM | SR > 100 µM | EKVX > 100 µM | NCI/ADR-RES > 100 µM | RPMI-8226 > 100 µM | SW-620 > 100 µM | NCI-H23 > 100 µM | A549 > 100 µM | HL-60 > 100 µM | LOX IMVI > 100 µM | UACC-257 > 100 µM

COC(=O)C12CCC(C(F)(F)C1=O)C2(C)C (centres undefined)
inactive: PC-3 > 100 µM | SK-MEL-5 > 100 µM | CAKI-1 > 100 µM | BT-549 > 100 µM | OVCAR-5 > 100 µM | T47D > 100 µM | MDA-N > 100 µM | NCI-H522 > 100 µM | COLO 205 > 100 µM | SR > 100 µM | NCI/ADR-RES > 100 µM | RPMI-8226 > 100 µM | SW-620 > 100 µM | NCI-H23 > 100 µM | A549 > 100 µM | HL-60 > 100 µM | MOLT-4 > 100 µM | LOX IMVI > 100 µM | UACC-257 > 100 µM

COC(=O)c1cc2c(cc1CC(Cc1ccc3c(c1)CCCC3)C(=O)OC)CCCC2 (centres undefined)
inactive: PC-3 21.7 µM | SK-MEL-5 24.5 µM | CAKI-1 > 100 µM | BT-549 > 100 µM | OVCAR-5 68.4 µM | T47D 39.8 µM | MDA-N 65.3 µM | NCI-H522 54.5 µM | COLO 205 33.2 µM | SR 97.7 µM | NCI/ADR-RES 41.3 µM | RPMI-8226 20 µM | SW-620 80.9 µM | NCI-H23 54.1 µM | A549 37.7 µM | HL-60 7.45 µM | MOLT-4 42.1 µM | LOX IMVI 28.2 µM | UACC-257 16.4 µM

COc1nc2ncc([C@@H](O)[C@H](O)CO)nc2c(=O)[nH]1
inactive: PC-3 > 100 µM | SK-MEL-5 > 100 µM | CAKI-1 > 100 µM | BT-549 99.1 µM | OVCAR-5 > 100 µM | T47D > 100 µM | MDA-N > 100 µM | NCI-H522 > 100 µM | COLO 205 > 100 µM | SR > 100 µM | EKVX > 100 µM | NCI/ADR-RES > 100 µM | RPMI-8226 > 100 µM | SW-620 > 100 µM | A549 > 100 µM | HL-60 63.2 µM | MOLT-4 > 100 µM | LOX IMVI > 100 µM | UACC-257 > 100 µM

O=C(Nn1c(-c2ccccc2)nc2ccccc2c1=O)c1ccccc1O
inactive: PC-3 28.9 µM | SK-MEL-5 19.4 µM | BT-549 38.6 µM | OVCAR-5 49.4 µM | T47D 42.3 µM | MDA-N 66.2 µM | NCI-H522 32.9 µM | COLO 205 67.3 µM | SR 32.8 µM | EKVX > 100 µM | NCI/ADR-RES 34.4 µM | RPMI-8226 51.5 µM | SW-620 41.2 µM | NCI-H23 34.4 µM | A549 36.8 µM | HL-60 27.8 µM | MOLT-4 24 µM | LOX IMVI 48.6 µM | UACC-257 45.6 µM
